# Test results as given in ChEMBL document CHEMBL5465560, “Selectivity Literature for EUbOPEN Chemogenomic Library” (2024).
# Experiments:
# [1] = molecular target: T1, Serine/threonine-protein kinase RIO1 (Homo sapiens) (UniProt Q9BRS2); assay: Selectivity interaction (KinomeScan (DiscoverX)) EUB0000229b RIOK1; conditions: at 10 µM
# T1 sequence (whole entry): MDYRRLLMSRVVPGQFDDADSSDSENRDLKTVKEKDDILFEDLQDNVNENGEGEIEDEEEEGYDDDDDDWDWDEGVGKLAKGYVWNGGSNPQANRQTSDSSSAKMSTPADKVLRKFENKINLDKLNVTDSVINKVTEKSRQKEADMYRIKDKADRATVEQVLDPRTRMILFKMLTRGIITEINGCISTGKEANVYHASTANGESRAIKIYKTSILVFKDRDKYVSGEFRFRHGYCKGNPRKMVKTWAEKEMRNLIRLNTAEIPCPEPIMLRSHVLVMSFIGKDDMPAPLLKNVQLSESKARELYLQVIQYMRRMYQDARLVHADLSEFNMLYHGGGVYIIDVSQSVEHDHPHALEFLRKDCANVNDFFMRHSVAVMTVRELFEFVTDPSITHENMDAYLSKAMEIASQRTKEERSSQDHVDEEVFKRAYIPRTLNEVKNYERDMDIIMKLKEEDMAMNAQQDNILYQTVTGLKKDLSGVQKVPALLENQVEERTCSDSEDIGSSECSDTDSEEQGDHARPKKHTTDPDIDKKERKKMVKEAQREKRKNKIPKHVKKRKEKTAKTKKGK
# [2] = molecular target: Tyrosine-protein kinase ABL1 (Homo sapiens, UniProt P00519); assay: Selectivity interaction (Kinase panel (DSF assay)) EUB0001559a ABL1
# [3] = molecular target: Myosin light chain kinase 2, skeletal/cardiac muscle (Homo sapiens) (UniProt Q9H1R3); assay: Selectivity interaction (KinomeScan (DiscoverX)) EUB0000666a MYLK2; conditions: at 10 µM
# [4] = molecular target: T2, Serine/threonine-protein kinase TNNI3K (Homo sapiens) (UniProt Q59H18); conditions: at 10 µM
# T2 sequence (whole entry): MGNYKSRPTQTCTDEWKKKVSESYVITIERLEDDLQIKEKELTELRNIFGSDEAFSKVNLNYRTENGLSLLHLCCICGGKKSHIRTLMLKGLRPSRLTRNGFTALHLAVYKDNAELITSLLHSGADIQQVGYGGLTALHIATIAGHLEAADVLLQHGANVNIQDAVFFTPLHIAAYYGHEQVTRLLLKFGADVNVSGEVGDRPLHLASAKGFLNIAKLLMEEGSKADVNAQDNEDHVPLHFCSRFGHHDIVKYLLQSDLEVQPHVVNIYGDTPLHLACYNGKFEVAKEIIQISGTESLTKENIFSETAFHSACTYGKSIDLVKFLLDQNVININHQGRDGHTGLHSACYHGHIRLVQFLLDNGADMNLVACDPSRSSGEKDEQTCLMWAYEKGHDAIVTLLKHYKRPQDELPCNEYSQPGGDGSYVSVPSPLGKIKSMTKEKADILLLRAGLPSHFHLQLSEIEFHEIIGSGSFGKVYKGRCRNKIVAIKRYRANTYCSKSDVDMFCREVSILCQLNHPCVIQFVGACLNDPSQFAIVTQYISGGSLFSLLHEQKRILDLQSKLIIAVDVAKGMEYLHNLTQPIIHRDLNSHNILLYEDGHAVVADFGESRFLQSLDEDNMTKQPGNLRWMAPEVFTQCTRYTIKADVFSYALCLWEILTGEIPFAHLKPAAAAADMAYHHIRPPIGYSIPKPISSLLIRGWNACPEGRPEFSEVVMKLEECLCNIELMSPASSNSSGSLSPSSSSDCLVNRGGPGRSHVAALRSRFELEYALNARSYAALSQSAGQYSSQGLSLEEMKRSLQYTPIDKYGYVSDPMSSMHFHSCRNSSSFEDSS
# [5] = molecular target: Serine/threonine-protein kinase tousled-like 2 (Homo sapiens) (UniProt Q86UE8); conditions: at 10 µM
# [6] = molecular target: T3, Muscarinic acetylcholine receptor M2 (Homo sapiens) (UniProt P08172); assay: Selectivity interaction (Safety Panel 44tm (Eurofins)) EUB0000162b CHRM2; conditions: at 10 µM
# T3 sequence (whole entry): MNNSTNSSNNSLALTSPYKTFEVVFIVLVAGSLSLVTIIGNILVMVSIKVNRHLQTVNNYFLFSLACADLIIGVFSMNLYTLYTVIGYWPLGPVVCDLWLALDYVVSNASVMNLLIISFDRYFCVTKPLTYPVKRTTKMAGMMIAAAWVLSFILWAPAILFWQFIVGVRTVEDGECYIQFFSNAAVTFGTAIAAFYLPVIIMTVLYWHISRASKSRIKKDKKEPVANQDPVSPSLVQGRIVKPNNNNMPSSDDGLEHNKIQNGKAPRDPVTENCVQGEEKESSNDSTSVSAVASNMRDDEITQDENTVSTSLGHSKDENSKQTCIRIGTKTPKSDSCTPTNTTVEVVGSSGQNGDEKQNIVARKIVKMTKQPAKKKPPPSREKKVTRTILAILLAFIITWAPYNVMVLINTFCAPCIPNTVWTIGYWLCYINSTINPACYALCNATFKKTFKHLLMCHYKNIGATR
# [7] = molecular target: MAP kinase-interacting serine/threonine-protein kinase 2 (Homo sapiens, UniProt Q9HBH9); assay: Selectivity interaction (Kinase panel (Carna Biosciences)) EUB0001542aTs MKNK2; conditions: at 1 µM
# [8] = Selectivity interaction (ActivX KiNativ screen (kinase selectivity in THP-1 cell lysates)) EUB0000639a STLK6; conditions: Selectivity number of targets 283, Source Knowledge https://pubmed.ncbi.nlm.nih.gov/28498658/
# [9] = molecular target: Cyclin-dependent kinase 17 (Homo sapiens) (UniProt Q00537); assay: Selectivity interaction (ActivX KiNativ screen (kinase selectivity in THP-1 cell lysates)) EUB0000639a CDK17; type: subcellular; conditions: lysate, at 0.2 µM
# Chain of Cyclin-dependent kinase 17 (Homo sapiens) (Q00537 whole entry, looked up): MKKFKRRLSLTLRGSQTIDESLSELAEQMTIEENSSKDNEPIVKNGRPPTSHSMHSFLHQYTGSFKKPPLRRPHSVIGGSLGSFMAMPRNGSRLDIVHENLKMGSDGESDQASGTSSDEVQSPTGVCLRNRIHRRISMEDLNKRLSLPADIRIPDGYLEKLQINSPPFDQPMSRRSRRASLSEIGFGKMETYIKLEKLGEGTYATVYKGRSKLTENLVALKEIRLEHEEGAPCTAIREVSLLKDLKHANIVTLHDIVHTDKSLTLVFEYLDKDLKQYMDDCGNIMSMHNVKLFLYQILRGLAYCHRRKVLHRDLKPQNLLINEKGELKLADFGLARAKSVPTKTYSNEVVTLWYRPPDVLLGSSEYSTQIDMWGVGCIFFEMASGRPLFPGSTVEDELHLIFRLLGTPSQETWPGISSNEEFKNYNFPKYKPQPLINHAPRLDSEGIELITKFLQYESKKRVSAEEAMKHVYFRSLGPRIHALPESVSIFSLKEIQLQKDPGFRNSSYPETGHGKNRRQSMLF
# Chain of Tyrosine-protein kinase ABL1 (P00519 whole entry): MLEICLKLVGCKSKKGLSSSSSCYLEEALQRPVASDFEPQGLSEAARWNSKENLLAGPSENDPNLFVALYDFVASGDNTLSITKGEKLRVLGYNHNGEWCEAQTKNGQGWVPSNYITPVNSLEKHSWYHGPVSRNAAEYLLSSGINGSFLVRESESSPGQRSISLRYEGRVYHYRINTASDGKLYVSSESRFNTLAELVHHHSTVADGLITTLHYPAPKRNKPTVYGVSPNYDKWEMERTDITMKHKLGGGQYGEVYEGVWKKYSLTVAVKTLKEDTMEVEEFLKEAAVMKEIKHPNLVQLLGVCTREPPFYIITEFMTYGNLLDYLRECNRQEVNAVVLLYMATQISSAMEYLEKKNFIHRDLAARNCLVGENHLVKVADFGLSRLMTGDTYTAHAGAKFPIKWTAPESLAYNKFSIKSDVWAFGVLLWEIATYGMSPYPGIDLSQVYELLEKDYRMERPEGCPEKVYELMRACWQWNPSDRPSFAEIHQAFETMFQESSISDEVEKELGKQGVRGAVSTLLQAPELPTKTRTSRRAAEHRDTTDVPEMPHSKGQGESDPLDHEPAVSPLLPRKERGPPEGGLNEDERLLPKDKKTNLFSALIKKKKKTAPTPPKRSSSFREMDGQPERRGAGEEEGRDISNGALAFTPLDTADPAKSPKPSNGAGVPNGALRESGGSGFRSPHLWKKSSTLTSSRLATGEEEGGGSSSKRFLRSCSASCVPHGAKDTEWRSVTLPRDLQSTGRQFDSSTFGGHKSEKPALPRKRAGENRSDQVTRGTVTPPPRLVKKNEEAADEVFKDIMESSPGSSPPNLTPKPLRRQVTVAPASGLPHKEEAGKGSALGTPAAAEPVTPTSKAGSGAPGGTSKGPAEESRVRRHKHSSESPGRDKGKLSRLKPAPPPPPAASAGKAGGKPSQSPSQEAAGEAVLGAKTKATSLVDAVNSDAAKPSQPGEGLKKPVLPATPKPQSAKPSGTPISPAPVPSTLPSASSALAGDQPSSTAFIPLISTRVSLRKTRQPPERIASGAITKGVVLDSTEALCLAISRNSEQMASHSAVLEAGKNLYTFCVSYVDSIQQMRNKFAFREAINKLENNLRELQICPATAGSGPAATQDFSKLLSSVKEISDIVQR
# Chain of MAP kinase-interacting serine/threonine-protein kinase 2 (Q9HBH9 whole entry, looked up): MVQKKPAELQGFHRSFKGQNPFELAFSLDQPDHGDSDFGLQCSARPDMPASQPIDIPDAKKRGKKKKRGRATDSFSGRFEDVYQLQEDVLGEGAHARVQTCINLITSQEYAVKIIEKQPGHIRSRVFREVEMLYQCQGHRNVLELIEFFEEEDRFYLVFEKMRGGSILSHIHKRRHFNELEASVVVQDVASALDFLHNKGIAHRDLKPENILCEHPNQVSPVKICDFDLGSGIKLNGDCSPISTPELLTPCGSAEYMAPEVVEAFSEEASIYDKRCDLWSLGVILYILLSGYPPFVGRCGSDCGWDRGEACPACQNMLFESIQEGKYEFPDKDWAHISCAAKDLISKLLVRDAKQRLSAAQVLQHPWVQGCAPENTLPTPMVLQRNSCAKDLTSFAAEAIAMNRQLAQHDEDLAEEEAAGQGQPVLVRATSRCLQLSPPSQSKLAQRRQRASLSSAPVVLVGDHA
# Chain of Serine/threonine-protein kinase tousled-like 2 (Homo sapiens) (Q86UE8 whole entry, looked up): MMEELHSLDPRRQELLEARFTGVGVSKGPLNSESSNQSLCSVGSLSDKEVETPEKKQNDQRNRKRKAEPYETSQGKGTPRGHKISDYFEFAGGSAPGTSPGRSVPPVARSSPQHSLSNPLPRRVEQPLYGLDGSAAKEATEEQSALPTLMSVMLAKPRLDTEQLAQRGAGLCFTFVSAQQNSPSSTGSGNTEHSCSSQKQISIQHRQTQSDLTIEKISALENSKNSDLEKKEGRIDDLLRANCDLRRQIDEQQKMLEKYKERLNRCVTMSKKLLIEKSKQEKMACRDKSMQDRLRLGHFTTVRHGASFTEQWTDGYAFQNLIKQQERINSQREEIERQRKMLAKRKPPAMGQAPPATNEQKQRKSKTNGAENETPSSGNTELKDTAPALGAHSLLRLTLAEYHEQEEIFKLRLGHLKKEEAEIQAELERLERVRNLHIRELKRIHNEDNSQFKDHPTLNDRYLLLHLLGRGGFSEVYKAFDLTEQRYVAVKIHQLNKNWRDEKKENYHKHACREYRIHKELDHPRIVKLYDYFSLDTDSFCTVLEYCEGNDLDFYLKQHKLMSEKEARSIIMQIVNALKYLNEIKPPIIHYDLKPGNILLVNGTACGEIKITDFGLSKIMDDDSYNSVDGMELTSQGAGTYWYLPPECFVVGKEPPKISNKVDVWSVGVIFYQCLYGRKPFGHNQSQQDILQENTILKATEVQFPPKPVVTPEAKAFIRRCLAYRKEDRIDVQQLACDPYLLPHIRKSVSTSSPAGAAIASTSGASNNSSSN
# Chain of Myosin light chain kinase 2, skeletal/cardiac muscle (Homo sapiens) (Q9H1R3 whole entry): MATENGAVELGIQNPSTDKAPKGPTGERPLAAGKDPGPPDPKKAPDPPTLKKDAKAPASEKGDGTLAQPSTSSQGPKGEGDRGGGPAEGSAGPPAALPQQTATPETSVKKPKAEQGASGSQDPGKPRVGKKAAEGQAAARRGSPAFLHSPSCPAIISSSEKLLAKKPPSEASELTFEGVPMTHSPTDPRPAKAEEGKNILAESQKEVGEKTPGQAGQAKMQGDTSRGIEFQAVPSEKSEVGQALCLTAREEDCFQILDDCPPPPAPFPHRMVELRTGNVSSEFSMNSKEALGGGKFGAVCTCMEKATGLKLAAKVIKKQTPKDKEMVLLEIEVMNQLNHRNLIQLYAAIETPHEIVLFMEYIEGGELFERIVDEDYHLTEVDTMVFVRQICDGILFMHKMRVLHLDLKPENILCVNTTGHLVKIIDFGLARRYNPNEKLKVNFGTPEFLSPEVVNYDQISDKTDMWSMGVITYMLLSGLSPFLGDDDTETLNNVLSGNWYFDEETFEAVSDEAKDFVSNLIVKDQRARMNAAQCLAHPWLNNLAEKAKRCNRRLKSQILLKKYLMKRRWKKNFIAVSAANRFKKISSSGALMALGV
smiles,measurement,setting,value
COc1cc(N(C)c2ccnc3ccc(C(F)(F)F)cc23)cc(OC)c1OC,% binding,[1],95%
CN(C(=O)c1cnn2cccnc12)c1cc2c(cc1N1CCOCC1)C(=O)N(C[C@@H](F)C(C)(C)O)C2,dTM,[2],0.6 K
O=C(NOC[C@H](O)CO)c1ccc(F)c(F)c1Nc1ccc(I)cc1F,% of control,[3],100%
Cc1cc([C@@H](C)Nc2ccccc2C(=O)O)c2nc(N3CCOCC3)cc(=O)n2c1 [AZD-6482],% of control,[4],88%
same,% of control,[5],88%
CN(C)C(=O)Cn1cc(-c2ccc(-c3cncc4ccccc34)cc2)cn1,% of control,[6],84%
Cn1cc(Nc2nccc(N3CC4CCC(C3)N4C(=O)[C@@H]3CC3(F)F)n2)cn1,% of inhibition,[7],68%
CC[C@@H]1[C@H](F)C(=O)N[C@@H]1COc1nccc2cc(C(N)=O)c(OC)cc12 [ZIMLOVISERTIB],% of inhibition,"[8]; Selectivity number of off-targets 0, at 0.01 µM",4.1%
same,% of inhibition,"[8]; Selectivity number of off-targets 0, at 0.04 µM",23.1%
same,% of inhibition,"[8]; Selectivity number of off-targets 0, at 0.2 µM",11.5%
same,% of inhibition,"[8]; Selectivity number of off-targets 1, at 1 µM",7.9%
same,% of inhibition,"[8]; Selectivity number of off-targets 5, at 5 µM",11.7%
same,% of inhibition,[9],0.4%
